Series [1] has as its system MCF-7 cells. Kind of series: Cell survival/growth inhibition assay in ER+ MCF-7 breast cancer cells. The series is classed as cell-based, human. To be noted: for inhibition at 1 µM / inhibition at 0.1 µM: MCF7. An excerpt: MCF-7 is a human breast adenocarcinoma cell line commonly accepted in the art as useful for in vitro breast cancer studies because it has retained several ideal characteristics particular to mammary epithelium. These characteristics include the ability to process estrogen (in the form of estradiol) via estrogen receptors in the cell cytoplasm. This makes the MCF-7 cell line an estrogen receptor (ER) positive control cell line.
To test if the prodrugs inhibit breast cancer cell growth and proliferation, cell survival assays were conducted.

Series [2] concerns T47D cells. Kind of series: Cell survival/growth inhibition assay in ER+ T47D breast cancer cells. The series is classed as cell-based. To be noted: for inhibition at 1 µM / inhibition at 0.1 µM: T47D; for IC50: dose-response, T47D cells. An excerpt:
The T47D cell line is also an ER positive control cell line.
To test if the prodrugs can inhibit growth in another breast cancer cell line that also expresses the estrogen receptor, T47D cells were used.

Series [3] can be described thus: Kinetic stability of prodrug (conversion to 4-OHT) in MCF-7 cell culture. The series is classed as in vitro ADME, human. Conditions: human, MCF-7 cell culture; 0 to 144 hours, regression of prodrug concentration relative to 4-OHT. As to the method: (§1) A kinetic study on the stability of the prodrugs was performed. In the study, the relative concentration of a prodrug to 4-OHT was determined at different time points that ranged from 0 hour to 144 hours (6 days).

In series [4] the test system is estrogen-dependent cell proliferation. Conditions: cited from earlier work.
Series [5] has as its system MCF-7 cells. Kind of series: Oxidative conversion of prodrug to 4-OHT in media after incubation with MCF-7 cells (HPLC-MS/MS). The series is classed as in vitro ADME, human. Conditions: LC-MS/MS. Here is the method:
(§2) To determine if the actions of the prodrugs are by means of biotransformation into the compound 4-hydroxytamoxifen, we analyzed the concentrations of the prodrugs and 4-hydroxytamoxifen in the media containing breast cancer cells using an HPLC-MS/MS technique.
(§3) Using HPLC coupled to a linear trap mass spectrometer, the prodrugs and their active product, 4-OHT were separated, identified, and quantified.
(§4) The relative peak areas were measured at 30.4% for prodrug 3 and 69.6% for 4-OHT (FIG. 5 panel A).

The test system of series [6] is T47D cells. Description: Oxidative conversion of prodrug to 4-OHT in media after incubation with T47D cells (HPLC-MS/MS). The series is classed as in vitro ADME. Conditions: LC-MS/MS. Here is the method: as §2, §3, §4
Series [7] concerns MCF-7 cell culture. Kind of series: Kinetic stability of prodrug (conversion to 4-OHT) in MCF-7 cell culture. The format is in vitro ADME, human. To be noted: 0 to 144 hours, regression of prodrug concentration relative to 4-OHT. Here is the method: as §1
The mark [8] stands for this setting: Homo sapiens, MCF7, dose-response, MCF-7 cells.

In the case of `CCC(=C(c1ccc(OCCN(C)C)cc1)c1ccc(B2OC(C)(C)C(C)(C)O2)cc1)c1ccccc1` [Prodrug 1, N,N-Dimethyl-2-(4-(2-phenyl-1-(4-(4,4,5,5-tetramethyl-1,3,2-dioxaborolan-2-yl)phenyl)but-1-en-1-yl)phenoxy)ethanamine], the IC50 in series [1] (setting [8]) is 150 nM; in series [1] (dose-response, MCF-7 cells, listed as Boron-4-OHT Prodrug (1)) it was 148 nM; in series [2] (Homo sapiens), 144 nM. The inhibition at 1 µM turned out to be 63% in series [1] (Homo sapiens, 10^−6 M) and 60% in series [2] (Homo sapiens, 10^−6 M). For the same molecule, the inhibition at 0.1 µM came out at 52% in series [1] (Homo sapiens, 10^−7 M) and 42% in series [2] (Homo sapiens, 10^−7 M). Also, in series [1] (cell line not given, values match MCF-7), the “IC50 relative to tamoxifen” value is listed as “about 5 times lower”. The half-life in series [3] was 89 h.

For `CCC(=C(c1ccc(OCCNC)cc1)c1ccc(B(O)O)cc1)c1ccccc1` [Prodrug 11, (4-(1-(4-(2-(Methylamino)ethoxy)phenyl)-2-phenylbut-1-en-1-yl)phenyl)boronic acid], the half-inhibitory concentration (IC50) came to 25.5 nM in series [1] (setting [8]) and 189 nM in series [2] (Homo sapiens). In addition, the “anti-proliferative efficacy compared to tamoxifen” value in series [1] (MCF-7 cells) is given as “greater anti-proliferative efficacy than tamoxifen”. Moreover, the inhibition at 1 µM in series [2] (Homo sapiens, 10^−6 M) was 53%. Further, in series [2] (Homo sapiens, 10^−7 M), the inhibition at 0.1 µM was 40%.

4-hydroxytamoxifen [Prodrug 4-OHT]: the “potency relative to tamoxifen in inhibiting estrogen-dependent cell proliferation” value in series [4] is given as 30- to 100 fold.

In the case of `CCC(=C(c1ccc(OCCN(C)C)cc1)c1ccc(B(O)O)cc1)c1ccccc1` [Prodrug 3, (4-(1-(4-(2-(Dimethylamino)ethoxy)phenyl)-2-phenylbut-1-en-1-yl)phenyl)boronic acid], the IC50 in series [1] (setting [8]) was 42 nM; in series [2] (Homo sapiens) it was 228 nM. Besides, the inhibition at 1 µM in series [1] (Homo sapiens, 10^−6 M) was found to be 75%; in series [2] (Homo sapiens, 10^−6 M), 54%. Moreover, the inhibition at 0.1 µM came out at 51% in series [1] (Homo sapiens, 10^−7 M) and 44% in series [2] (Homo sapiens, 10^−7 M). Besides, the “relative peak area of remaining prodrug” value in series [5] is listed as 30.4%. For the same molecule, the “% peak area of remaining prodrug” value in series [6] was determined as 20.9%. For the same molecule, the half-life in series [3] was 96 h.

Turning to `CCC(=C(c1ccc(OCCN(C)C)cc1)c1ccc([B-](F)(F)F)cc1)c1ccccc1.[K+]` [Prodrug 2, Potassium (4-(1-(4-(2-(dimethylamino)ethoxy)phenyl)-2-phenylbut-1-en-1-yl)phenyl)trifluoro boronate], the “growth inhibition of MCF-7 cells” value in series [1] (10^−6 M) came out at 76%; in series [1] (10^−7 M) it was 59%. Besides, the half-maximal inhibitory concentration (IC50) in series [1] (dose-response, MCF-7 cells) worked out at 6.3 nM; in series [1] (dose-response, MCF-7 cells, listed as Boron-4-OHT Prodrug (2)), 6.26 nM; in series [2], 260 nM. In addition, the “growth inhibition of T47D cells” value in series [2] (10^−6 M) worked out at 50%; in series [2] (10^−7 M), 38%. Also, the “% peak area of 4-OHT formed from prodrug” value in series [5] is 81.6%. The “% peak area of 4-OHT formed from prodrug (transformed into 4-OHT)” value in series [6] was determined as 86.3%. In series [7], the “half-life of prodrug (conversion to 4-OHT)” value turned out to be 84 h.

`CC/C(=C(\c1ccccc1)c1ccc(OCCN(C)C)cc1)c1ccccc1` [Tamoxifen]: the inhibition at 1 µM was determined as 52% in series [1] (Homo sapiens, 10^−6 M) and 46% in series [2] (Homo sapiens, 10^−6 M). Besides, the inhibition at 0.1 µM in series [1] (Homo sapiens, 10^−7 M) was 18%; in series [2] (Homo sapiens, 10^−7 M), 39%. In addition, in series [2] (10^−6 M), the “growth inhibition of T47D cells” value is 48%.

Values taken from US9353132B2, “Boron-based 4-hydroxytamoxifen and endoxifen prodrugs as treatment for breast cancer” (XAVIER UNIVERSITY OF LOUISIANA, priority 2012, dated 2016).
